Reference: patent publication US20250154138A1, “Small Molecule IL-17A Modulators” (BeiGene, Ltd., priority 2022, published 2025)

Tests used:
[1] = target: human IL-17A / human IL-17RA (Homo sapiens (Human), UniProt Q16552); test: Human IL-17A biochemical assay (HTRF, blocking of IL-17A binding to IL-17RA); conditions: 0.4 nM IL-17A, 0.3 nM IL-17RA, max compound concentration 10 uM
How it was run: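 Compounds (10-point, 2.7-fold dilution from 10 uM) preincubated 3 h at RT with 0.4 nM human IL-17A, followed by 1 h with 0.3 nM IL-17RA and 1 h with Tb-cryptate/XL665 antibodies; buffer 20 mM HEPES pH 7.5, 0.1% BSA. Inhibition derived from HTRF fluorescence ratio; IC50 by four-parameter logistic fitting.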

[2] = tested on: IL-17-induced GROα secretion from HT-29 cells; test: GROα release assay in human colorectal adenocarcinoma epithelial cell (HT-29, ELISA); assay type: cell-based; conditions: Homo sapiens, HT-29, 48 h, 10 ng/mL IL-17A, highest concentration 10 μM, read-out: Cellular assay HT29 cell/CXCL1 IC50
How it was run: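 IC50 values come from four-parameter fits of GROα levels, quantified by ELISA (450 nm, standard curve) in supernatants. Compounds, 4-fold serially diluted from 10 μM, were mixed 15 min with IL-17A (10 ng/mL final) before 48 h incubation with HT-29 cells at 37°C.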

Chain of human IL-17A / human IL-17RA (Q16552 24-155): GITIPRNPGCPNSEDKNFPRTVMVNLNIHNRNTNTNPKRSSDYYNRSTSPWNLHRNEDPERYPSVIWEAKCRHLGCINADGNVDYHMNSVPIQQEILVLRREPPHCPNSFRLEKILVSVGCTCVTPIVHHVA

Row | SMILES | IC50 [1] | IC50 [2]
1 | CNC(=O)C1(N2C[C@@H](C(C)C)NC2=O)Cc2ccc(NC(=O)[C@@H](NC(=O)c3cccc(C)c3)C3CCCCC3)cc2C1 (stereo partly drawn) [Example 71, 5-((S)-2-cyclohexyl-2-(3-methylbenzamido)acetamido)-2-((R)-4-isopropyl-2-oxoimidazolidin-1-yl)-N-methyl-2,3-dihydro-1H-indene-2-carboxamide] | 21 nM | 217 nM
2 | CNC(=O)C1(N2CC(Cc3ccc(Cl)cc3)NC2=O)Cc2ccc(NC(=O)[C@@H](NC(=O)c3ccnn3C)C3CCCCC3)cc2C1 (stereo partly drawn) [Example 74, N-((1S)-2-((2-(4-(4-chlorobenzyl)-2-oxoimidazolidin-1-yl)-2-(methylcarbamoyl)-2,3-dihydro-1H-inden-5-yl)amino)-1-cyclohexyl-2-oxoethyl)-1-methyl-1H-pyrazole-5-carboxamide] | 32 nM | 342 nM
3 | CCC1CNC(=O)N(C2(C(=O)NC)Cc3ccc(NC(=O)[C@@H](NC(=O)c4ccnn4C)C4CCCCC4)cc3C2)C1 (stereo partly drawn) [Example 75, N-((1S)-1-cyclohexyl-2-((2-(5-ethyl-2-oxotetrahydropyrimidin-1(2H)-yl)-2-(methylcarbamoyl)-2,3-dihydro-1H-inden-5-yl)amino)-2-oxoethyl)-1-methyl-1H-pyrazole-5-carboxamide] | 33 nM | 186 nM
4 | CNC(=O)C1(N2C[C@@H](Cc3ccc(F)cc3)NC2=O)Cc2ccc(NC(=O)[C@@H](NC(=O)c3ccnn3C)C3CCCCC3)cc2C1 (stereo partly drawn) [Example 76, N-((1S)-1-cyclohexyl-2-((2-((R)-4-(4-fluorobenzyl)-2-oxoimidazolidin-1-yl)-2-(methylcarbamoyl)-2,3-dihydro-1H-inden-5-yl)amino)-2-oxoethyl)-1-methyl-1H-pyrazole-5-carboxamide] | 90 nM | 736 nM
5 | CNC(=O)C1(N2C[C@@H](C(C)C)NC2=O)Cc2ccc(NC(=O)[C@H](Cc3cc(-c4ccnc(C(C)(C)O)c4)ccc3Cl)NC(=O)c3ccnn3C)cc2C1 (stereo partly drawn) [Example 79, N-((2S)-3-(2-chloro-5-(2-(2-hydroxypropan-2-yl)pyridin-4-yl)phenyl)-1-((2-((R)-4-isopropyl-2-oxoimidazolidin-1-yl)-2-(methylcarbamoyl)-2,3-dihydro-1H-inden-5-yl)amino)-1-oxopropan-2-yl)-1-methyl-1H-pyrazole-5-carboxamide] | 79 nM | 1300 nM
6 | CNC(=O)C1(N2CC(Cc3ccc(C(F)(F)F)cc3)NC2=O)Cc2ccc(NC(=O)[C@@H](NC(=O)c3ccnn3C)C3CCCCC3)cc2C1 (stereo partly drawn) [Example 80, N-((1S)-1-cyclohexyl-2-((2-(methylcarbamoyl)-2-(2-oxo-4-(4-(trifluoromethyl)benzyl)imidazolidin-1-yl)-2,3-dihydro-1H-inden-5-yl)amino)-2-oxoethyl)-1-methyl-1H-pyrazole-5-carboxamide] | 157 nM | 971 nM
7 | CNC(=O)C1(N2CC(C(C)C(F)(F)F)NC2=O)Cc2ccc(NC(=O)[C@@H](NC(=O)c3ccnn3C)C3CCCCC3)cc2C1 (stereo partly drawn) [Example 81, N-((1S)-1-cyclohexyl-2-((2-(methylcarbamoyl)-2-(2-oxo-4-(1,1,1-trifluoropropan-2-yl)imidazolidin-1-yl)-2,3-dihydro-1H-inden-5-yl)amino)-2-oxoethyl)-1-methyl-1H-pyrazole-5-carboxamide] | 75 nM | 702 nM
8 | [2H]C([2H])([2H])NC(=O)C1(N2C[C@@H](C(C)C)NC2=O)Cc2ccc(NC(=O)[C@@H](NC(=O)c3ccnn3C)C3CCCCCC3)cc2C1 (stereo partly drawn) [Example 82, N-((1S)-1-cycloheptyl-2-((2-((R)-4-isopropyl-2-oxoimidazolidin-1-yl)-2-((methyl-d3)carbamoyl)-2,3-dihydro-1H-inden-5-yl)amino)-2-oxoethyl)-1-methyl-1H-pyrazole-5-carboxamide] | 32 nM | 156 nM
9 | CC(C)[C@@H]1CN(C2(C(N)=O)Cc3ccc(NC(=O)[C@@H](NC(=O)c4ccnn4C)C4CCCCCC4)cc3C2)C(=O)N1 (stereo partly drawn) [Example 83, N-((1S)-2-((2-carbamoyl-2-((R)-4-isopropyl-2-oxoimidazolidin-1-yl)-2,3-dihydro-1H-inden-5-yl)amino)-1-cycloheptyl-2-oxoethyl)-1-methyl-1H-pyrazole-5-carboxamide] | 22 nM | 190 nM
10 | CNC(=O)C1(N2C[C@@H](C(C)C)NC2=O)Cc2ccc(NC(=O)[C@@H](NC(=O)c3cccc(OC(C)C)c3)C3CCCCC3)cc2C1 (stereo partly drawn) [Example 84, 5-((S)-2-cyclohexyl-2-(3-isopropoxybenzamido)acetamido)-2-((R)-4-isopropyl-2-oxoimidazolidin-1-yl)-N-methyl-2,3-dihydro-1H-indene-2-carboxamide] | 37 nM | 94.4 nM
11 | CC(C)[C@@H]1CN(C2(C(=O)NC(CO)C3CCC3)Cc3ccc(NC(=O)[C@@H](NC(=O)c4ccnn4C)C4CCCCC4)cc3C2)C(=O)N1 (stereo partly drawn) [Example 86, N-((1S)-2-((2-((1-cyclobutyl-2-hydroxyethyl)carbamoyl)-2-((R)-4-isopropyl-2-oxoimidazolidin-1-yl)-2,3-dihydro-1H-inden-5-yl)amino)-1-cyclohexyl-2-oxoethyl)-1-methyl-1H-pyrazole-5-carboxamide] | 22 nM | 23.5 nM
12 | CNC(=O)C1(N2C[C@@H](C(C)C)NC2=O)Cc2ccc(NC(=O)C(NC(=O)c3ccnn3C)C3CCC(C)(C)CC3)cc2C1 (stereo partly drawn) [Example 87, N-(1-(4,4-dimethylcyclohexyl)-2-((2-((R)-4-isopropyl-2-oxoimidazolidin-1-yl)-2-(methylcarbamoyl)-2,3-dihydro-1H-inden-5-yl)amino)-2-oxoethyl)-1-methyl-1H-pyrazole-5-carboxamide] | 36 nM | 352 nM
13 | CNC(=O)C1(N2C[C@@H](C(C)C)NC2=O)Cc2ccc(NC(=O)C(NC(=O)c3ccnn3C)C3CCC(C)CC3)cc2C1 (stereo partly drawn) [Example 89, N-(2-((2-((R)-4-isopropyl-2-oxoimidazolidin-1-yl)-2-(methylcarbamoyl)-2,3-dihydro-1H-inden-5-yl)amino)-1-(4-methylcyclohexyl)-2-oxoethyl)-1-methyl-1H-pyrazole-5-carboxamide] | 18 nM | 29.7 nM
14 | CNC(=O)C1(N2C[C@@H](C(C)C)NC2=O)Cc2ccc(NC(=O)[C@@H](NC(=O)c3ccnn3C)C(C3CC3)C3CC3)cc2C1 (stereo partly drawn) [Example 90, N-((2S)-1,1-dicyclopropyl-3-((2-((R)-4-isopropyl-2-oxoimidazolidin-1-yl)-2-(methylcarbamoyl)-2,3-dihydro-1H-inden-5-yl)amino)-3-oxopropan-2-yl)-1-methyl-1H-pyrazole-5-carboxamide] | 37 nM | 48.6 nM
15 | CNC(=O)C1(N2C[C@@H](C(C)C)NC2=O)Cc2ccc(NC(=O)[C@@H](NC(=O)c3ccnn3C(C)C)C(C3CC3)C3CC3)cc2C1 (stereo partly drawn) [Example 91, N-((2S)-1,1-dicyclopropyl-3-((2-((R)-4-isopropyl-2-oxoimidazolidin-1-yl)-2-(methylcarbamoyl)-2,3-dihydro-1H-inden-5-yl)amino)-3-oxopropan-2-yl)-1-isopropyl-1H-pyrazole-5-carboxamide] | 71 nM | 43 nM
16 | CNC(=O)C1(N2CC(C3CC3)CNC2=O)Cc2ccc(NC(=O)[C@@H](NC(=O)c3ccnn3C)C3CCCCC3)cc2C1 (stereo partly drawn) [Example 94, N-((1S)-1-cyclohexyl-2-((2-(5-cyclopropyl-2-oxotetrahydropyrimidin-1(2H)-yl)-2-(methylcarbamoyl)-2,3-dihydro-1H-inden-5-yl)amino)-2-oxoethyl)-1-methyl-1H-pyrazole-5-carboxamide] | 40 nM | 118 nM
17 | CNC(=O)C1(N2C[C@@H](C(C)C)NC2=O)Cc2ccc(NC(=O)C(NC(=O)c3ccnn3C)C3CCc4ccccc43)cc2C1 (stereo partly drawn) [Example 97, N-(1-(2,3-dihydro-1H-inden-1-yl)-2-((2-((R)-4-isopropyl-2-oxoimidazolidin-1-yl)-2-(methylcarbamoyl)-2,3-dihydro-1H-inden-5-yl)amino)-2-oxoethyl)-1-methyl-1H-pyrazole-5-carboxamide] | 535 nM | 1860 nM
18 | CNC(=O)C1(N2CC(C)CNC2=O)Cc2ccc(NC(=O)[C@@H](NC(=O)c3ccnn3C)C3CCCCC3)cc2C1 (stereo partly drawn) [Example 98, N-((1S)-1-cyclohexyl-2-((2-(5-methyl-2-oxotetrahydropyrimidin-1(2H)-yl)-2-(methylcarbamoyl)-2,3-dihydro-1H-inden-5-yl)amino)-2-oxoethyl)-1-methyl-1H-pyrazole-5-carboxamide] | 628 nM | 3280 nM
19 | CNC(=O)C1(N2CC(Cc3ccccc3)CNC2=O)Cc2ccc(NC(=O)[C@@H](NC(=O)c3ccnn3C)C3CCCCC3)cc2C1 (stereo partly drawn) [Example 99, N-((1S)-2-((2-(5-benzyl-2-oxotetrahydropyrimidin-1(2H)-yl)-2-(methylcarbamoyl)-2,3-dihydro-1H-inden-5-yl)amino)-1-cyclohexyl-2-oxoethyl)-1-methyl-1H-pyrazole-5-carboxamide] | 278 nM | 2480 nM
20 | CNC(=O)C1(N2CC(C)(Cc3ccc(OC)cc3)CNC2=O)Cc2ccc(NC(=O)[C@@H](NC(=O)c3ccnn3C)C3CCCCC3)cc2C1 (stereo partly drawn) [Example 100, N-((1S)-1-cyclohexyl-2-((2-(5-(4-methoxybenzyl)-5-methyl-2-oxotetrahydropyrimidin-1(2H)-yl)-2-(methylcarbamoyl)-2,3-dihydro-1H-inden-5-yl)amino)-2-oxoethyl)-1-methyl-1H-pyrazole-5-carboxamide] | 886 nM | 2560 nM
